Measurements as given in patent US4310682A, “Halo-salicylanilide” (priority 1979, dated 1982).

Tests used:
Type in all cases: cell-based
[1] = test system: Escherichia coli NIHJ JC-2; assay: MIC, agar medium containing the compound; conditions: bacterium No. 1, 37° C., 4 hours
Procedure: (§1) In order to test antifungal and bactericidal activity of halo-salicylanilide obtained in above mentioned Examples, following bacteria and fungi are employed.
No. 1 Escherichia coli NIHJ JC-2
(§2) Bacteria No. 1 to No. 4 are respectively cultured in Hart Infusion bouillon medium at 37° C. for 20 hours and resulting medium liquids are employed for said test. Fungi No. 5 to No. 7 are respectively cultured in Sabouraud agar medium and 10^6 cell/ml of cell dispersing liquids obtained from said medium are employed for said test.

[2] = test system: Pseudomonas aeruqinosa NC-5; assay: MIC, agar medium containing the compound; conditions: bacterium No. 2, 37° C., 4 hours
Procedure: as §1
No. 2 Pseudomonas aeruqinosa NC-5
as §2

[3] = test system: Staphylococcus aureus FDA-209-P; assay: MIC, agar medium containing the compound; conditions: bacterium No. 3, 37° C., 4 hours
Procedure: as §1
No. 3 Staphylococcus aureus FDA-209-P
as §2

[4] = test system: Bacillus subtilis PCI-219; assay: MIC, agar medium containing the compound; conditions: bacterium No. 4, 37° C., 4 hours
Procedure: as §1
No. 4 Bacillus subtilis PCI-219
as §2

[5] = test system: Candida albicans ATCC 10259; assay: MIC, Sabouraud agar medium containing the compound; conditions: fungus No. 5, 20° C., 14 days
Procedure: as §1
No. 5 Candida albicans ATCC 10259
as §2

[6] = test system: Trichophyton rubrum IFO 9185; assay: MIC, Sabouraud agar medium containing the compound; conditions: fungus No. 7, 20° C., 14 days
Procedure: as §1
No. 7 Trichophyton rubrum IFO 9185
as §2

[7] = test system: Aspergillus flavus IFO 8558; assay: MIC, Sabouraud agar medium containing the compound; conditions: fungus No. 6, 20° C., 14 days
Procedure: as §1
No. 6 Aspergillus flavus IFO 8558
as §2

[8] = test system: Candida albicans ATCC 10259; assay: Multiplying state after removal to compound-free medium (scanning electron microscope); conditions: first cultured in medium containing the compound, then removed; FIG. 1 and FIG. 2
[9] = test system: bacteria No. 1 to No. 4 and fungi No. 5 to No. 7; assay: Antifungal and bactericidal activity test, overall assessment of Table 8; conditions: referring to Table 8
Procedure: as §1, §2
Referring now to Table 8, in said Examples the halo-salicylanilides provided have respectively remarkable higher antifungal and bactericidal activity than that of the contrasts proposed and said halo-salicylanilidesare especially effective on bacteria No. 3 and No. 4, and fungi No. 5, No. 6 and No. 7. This testifies that alkyl group of 2'-position of the halo-salicylanilides is significant for the activities of the compound. […] Especially the halo-salicylanilides having fluorine in 5-position are very useful for agricultural medicines.

| Molecule | MIC (Minimum Inhibitory Concentration) [1] | MIC (Minimum Inhibitory Concentration) [2] | MIC (Minimum Inhibitory Concentration) [3] | MIC (Minimum Inhibitory Concentration) [4] | MIC (Minimum Inhibitory Concentration) [5] | MIC (Minimum Inhibitory Concentration) [6] | MIC (Minimum Inhibitory Concentration) [7] | multiplying state of the fungi after removal to culture medium without the compound [8] | antifungal and bactericidal activity (assessment in words) [9] |
| --- | --- | --- | --- | --- | --- | --- | --- | --- | --- |
| 5-bromo-2'-methyl-4'-acetylsalicylanilide [compound 11] | > 100 | > 100 | 0.2 | 0.4 | 100 | 0.8 | – | – | – |
| 5-chloro-2'-methyl-4'-bromo chloro salicylanilide [compound 7] | > 100 | > 100 | 0.8 | 0.8 | 100 | 25 | – | – | – |
| O=C(Nc1ccc(Cl)cc1)c1cc(Br)ccc1O [Contrast No. 1, reference compound] | > 100 | > 100 | – | – | > 100 | 50 | > 100 | – | – |
| O=C(Nc1ccc(Cl)cc1)c1cc(I)cc(I)c1O [Contrast No. 2, reference compound] | > 100 | > 100 | – | – | 50 | 50 | > 100 | again starts to multiply | – |
| C=CCCCCCCCCC(=O)O [Contrast No. 3, undecylenic acid, reference compound] | > 100 | – | > 100 | > 100 | – | 50 | 50 | – | – |
| COC1=CC(=O)C[C@@H](C)[C@]12Oc1c(Cl)c(OC)cc(OC)c1C2=O [Contrast No. 4, griseo fulvin, reference compound] | > 100 | – | > 100 | > 100 | – | 25 | 25 | – | – |
| Cc1cc(Cl)ccc1NC(=O)c1cc(Br)ccc1O [compound 1, 5-bromo-2'-methyl-4'-chloro salicylanilide] | > 100 | > 100 | 0.8 | 0.8 | 50 | 50 | 50 | – | – |
| Cc1cc(Br)ccc1NC(=O)c1cc(Cl)ccc1O [compound 2, 5-chloro-2'-methyl-4'-bromo salicyl anilide] | > 100 | > 100 | 0.8 | 0.8 | 50 | 50 | 50 | – | – |
| CC(=O)Oc1ccc(Cl)cc1C(=O)Nc1ccc(Cl)cc1C [compound 4, 5-chloro-2'-methyl-4' chloro-acetyl salcylanilide] | > 100 | > 100 | 0.1 | 0.2 | 100 | 0.2 | – | – | – |
| Cc1cc(Br)ccc1NC(=O)c1cc(I)ccc1O [compound 5, 5-iodo-2'-methyl-4'-bromo salicylanilide] | > 100 | – | 0.37 | 0.75 | 3.2 | 3.2 | 3.2 | – | remarkable antifungal and bactericidal activity |
| CCc1cc(Cl)ccc1NC(=O)c1cc(I)ccc1O [compound 6, 5-iodo-2'-ethyl-4'-chloro salicylanilide] | > 100 | – | 0.75 | 0.75 | 6.3 | 3.2 | 3.2 | – | remarkable antifungal and bactericidal activity |
| CC(=O)Oc1ccc(Cl)cc1C(=O)Nc1ccc(Br)cc1C [compound 8, 5-chloro-2'-methyl-4'-bromo acetylsalicylanilide] | > 100 | > 100 | 0.8 | 0.8 | 100 | < 0.8 | – | – | – |
| CC(=O)Oc1ccc(Br)cc1C(=O)Nc1ccc(Cl)cc1C [compound 9, 5-bromo-2'-methyl-4'-chloro acetylsalicylanilide] | > 100 | > 100 | 0.8 | 0.8 | 100 | 25 | – | – | – |
| Cc1cc(Br)ccc1NC(=O)c1cc(Br)ccc1O [compound 10, 5-bromo-2'-methyl-4'-bromo salicylanilide] | > 100 | > 100 | 0.2 | 0.4 | 100 | 0.8 | – | – | – |
| CC(=O)Oc1ccc(I)cc1C(=O)Nc1ccc(Cl)cc1C [compound 12, 5-iodo-2'-methyl-4'-chloro acetylsalicylanilide] | > 100 | 100 | 0.8 | 0.8 | 100 | 0.8 | – | – | – |
| CC(=O)Oc1ccc(I)cc1C(=O)Nc1ccc(Br)cc1C [compound 13, 5-iodo-2'-methyl-4'-bromo acetylsalicylanilide] | > 100 | 100 | 0.2 | 0.4 | 100 | 12.5 | – | – | remarkable antifungal and bactericidal activity |
| Cc1cc(Cl)ccc1NC(=O)c1cc(F)ccc1O [compound 14, 5-fluoro-2'-methyl-4'-chloro salicylanilide] | > 100 | 100 | 0.4 | 0.4 | 100 | < 0.8 | – | – | – |
| CC(=O)Oc1ccc(F)cc1C(=O)Nc1ccc(Cl)cc1C [compound 15, 5-fluoro-2'-methyl-4'-chloro acetylsalicylanilide] | > 100 | 100 | 0.4 | 0.4 | 100 | < 0.8 | – | – | – |
| Cc1cc(Br)ccc1NC(=O)c1cc(F)ccc1O [compound 16, 5-fluoro-2'-methyl-4'-bromo salicylanilide] | > 100 | 100 | 0.4 | 0.4 | 100 | < 0.8 | – | – | – |
| CC(=O)Oc1ccc(F)cc1C(=O)Nc1ccc(Br)cc1C [compound 17, 5-fluoro-2'-methyl-4'-bromo acetylsalicylanilide] | > 100 | 100 | 0.4 | 0.4 | 100 | < 0.8 | – | – | – |
| Cc1cc(I)ccc1NC(=O)c1cc(F)ccc1O [compound 18, 5-fluoro-2'-methyl-4'-iodo salicylanilide] | > 100 | 100 | 0.4 | 0.4 | 100 | < 0.8 | – | – | – |
| CC(=O)Oc1ccc(F)cc1C(=O)Nc1ccc(I)cc1C [compound 19, 5-fluoro-2'-methyl-4'-iodo acetylsalicylanilide] | > 100 | 100 | 0.4 | 0.4 | 100 | < 0.8 | – | – | – |
